For one test, the system named is SW-620. The test is described as follows: Antiproliferative activity against human BRCA-2 proficient SW-620 cells assessed as reduction in cell growth incubated for 7 days by cell titer-glo assay. The class given is functional, cell-based. The settings on record: SW-620, 168 h.
A further test has as its system HCC1937. The test is described as follows: Antiproliferative activity against human BRCA-1 deficient HCC1937 cells assessed as reduction in cell growth incubated for 7 days by cell titer-glo assay. It is filed as functional, cell-based. The settings on record: HCC1937, 168 h.
The next test concerns HCT-116. The test is described as follows: Antiproliferative activity against human BRCA-2 deficient HCT-116 cells assessed as reduction in cell growth incubated for 7 days by cell titer-glo assay. It is filed as functional, cell-based. The settings on record: HCT-116, 168 h.
Test [1] has as its system MDA-MB-468. The test is described as follows: Antitumor activity against human MDA-MB-468 cells xenografted in BALB/c mouse assessed as tumor growth inhibition at 50 mg/kg, ip administered for 32 days along with GDC-0980 relative to control. It is filed as functional. The settings on record: time 32 day.
Another test concerns MDA-MB-231. The test is described as follows: Antiproliferative activity against human BRCA proficient MDA-MB-231 cells assessed as reduction in cell growth incubated for 7 days by cell titer-glo assay. It is filed as functional, cell-based. The note with it: MDA-MB-231, 168 h.
Test [2] relates to MDA-MB-468. The test is described as follows: Antiproliferative activity against human BRCA proficient MDA-MB-468 cells assessed as reduction in cell growth incubated for 7 days by cell titer-glo assay. It is filed as functional, cell-based. The settings on record: MDA-MB-468, 168 h.
In test [3] the test system is MDA-MB-468. The test is described as follows: Antitumor activity against human MDA-MB-468 cells xenografted in BALB/c mouse assessed as tumor growth inhibition at 50 mg/kg, ip once daily administered for 32 days relative to control. The class given is functional. The note with it: time 32 day.

On to `O=C(c1cc(Cc2n[nH]c(=O)c3ccccc23)ccc1F)N1CCN(C(=O)C2CC2)CC1` [OLAPARIB], for which the half-inhibitory concentration (IC50) with SW-620, in the test with HCC1937, in the test on HCT-116, in the test on MDA-MB-231 and with MDA-MB-468 [2] was more than 10 µM in each case. In addition, the values for the tumour growth inhibition (TGI) with MDA-MB-468 [1] and with MDA-MB-468 [3] were 45.93% and 27.91%, respectively.

These data come from ChEMBL document CHEMBL4813994, “Discovery of novel and potent PARP/PI3K dual inhibitors for the treatment of cancer” (Eur J Med Chem, 2021).
